Values quoted from earlier work in patent US9918970B2, “Pharmaceutical composition comprising solifenacin” (Astellas Pharma Inc., priority 2010, dated 2018).

Target: muscarinic M3 receptor (Homo sapiens, UniProt P20309)
Sequence (P20309 whole entry): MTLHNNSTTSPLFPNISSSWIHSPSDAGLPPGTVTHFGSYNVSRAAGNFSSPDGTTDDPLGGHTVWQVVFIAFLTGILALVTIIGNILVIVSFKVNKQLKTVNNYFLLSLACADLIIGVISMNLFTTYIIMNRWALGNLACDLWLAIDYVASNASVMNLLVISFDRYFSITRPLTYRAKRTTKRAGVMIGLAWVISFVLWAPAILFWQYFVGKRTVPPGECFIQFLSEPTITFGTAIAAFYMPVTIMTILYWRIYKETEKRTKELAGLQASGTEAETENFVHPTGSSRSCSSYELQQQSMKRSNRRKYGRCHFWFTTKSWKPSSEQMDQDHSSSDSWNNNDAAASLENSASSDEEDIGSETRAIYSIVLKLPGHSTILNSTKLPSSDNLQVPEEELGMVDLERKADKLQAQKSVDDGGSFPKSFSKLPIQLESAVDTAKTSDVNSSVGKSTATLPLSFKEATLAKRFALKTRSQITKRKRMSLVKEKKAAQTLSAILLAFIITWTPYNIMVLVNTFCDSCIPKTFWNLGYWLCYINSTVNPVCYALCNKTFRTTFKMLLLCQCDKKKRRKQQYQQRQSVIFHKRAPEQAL

Structure (SMILES): O=C(O[C@H]1CN2CCC1CC2)N1CCc2ccccc2[C@@H]1c1ccccc1 [solifenacin, (R)-quinuclidin-3-yl (S)-1-phenyl-1,2,3,4-tetrahydroisoquinoline-2-carboxylate]
- antagonistic activity against muscarinic M3 receptor (in words): excellent selective antagonistic activity
- selectivity for the M3 receptor as compared with the M2 receptor (in words) (M3 in smooth muscle, gland tissues, M2 in heart): higher selectivity
